Reference: publication PMC11243149, “Assessing the Effects of Thiazole-Carboxamide Derivatives on the Biophysical Properties of AMPA Receptor Complexes as a Potential Neuroprotective Agent” (Molecules, 2024)
Like-named read-outs stand apart in the source and are kept apart here.

Biological target: T1, GluA1/2 (Homo sapiens, UniProt P42261+P42262)
T1 construct: expressed in transfected cells; host or cells: HEK293T
Assay: Whole-cell patch-clamp recordings of heteromeric GluA1/2 AMPAR in transfected HEK293T cells
Type: cell-based
Details: for Amplitude (glutamate plus TC compound): 10 mM glutamate + TC compound (12 µM optimal concentration), HEK293T, -60 mV, pH 7.4, 22 °C, mean ± SEM; for Amplitude (glutamate plus TC compound) / Amplitude, applying glutamate alone after TC compound: n = 10; for Amplitude, applying glutamate alone after TC compound: 10 mM glutamate alone after 20 s wash following the TC compound; for A/AI: ratio of current with glutamate alone (A) to inhibited current after TC compound (AI); for t deact: weighted tau of deactivation, 10 mM glutamate for 1 ms, glutamate alone 2.5±0.3; for t deact / t des: with TC compound; for t des: weighted tau of desensitization, 10 mM glutamate 500 ms, glutamate alone 5.2±0.5
Procedure: The effect of five TC compounds on whole-cell currents of four AMPAR subunits (GluA1, GluA1/2, GluA2, and GluA2/3) was investigated using transfected HEK293T cells. Each compound was applied separately to each subunit, with experiments conducted on 8–10 cells per condition to ensure reproducibility. […] At a glutamate concentration of 10 mM and a 500 ms protocol, approximately 95% of AMPAR channels were open. The A/AI ratio was calculated to compare the results, where A represents normalized current readings and AI indicates the inhibited current following TC compound exposure. […] Following closely, TC-1 inhibited the tested subunits by 5-fold.
The IC50 values were examined using GraphPad Prism software 9.5.0.730 (x64) (Table S6), which confirmed these findings. The IC50 values of TC substances were calculated by standardizing the peak current amplitudes using data obtained from 8–10 cells. Following a 500 ms exposure to the compounds, the cells were rinsed with glutamate for 20 s. Next, a solution containing just glutamate at a concentration of 10 mM was administered, and the resulting immediate induced electrical current was measured and documented (Figure 3).
In addition, an evaluation was conducted on the deactivation rates (τw deact) of all the examined chemicals to investigate their impact on the kinetics of deactivation. The chemicals were assessed for their effect on the deactivation kinetics of AMPAR subunits by briefly administering 10 mM glutamate for 1 ms to begin currents. This experimental setup allowed for the observation of τw deact under controlled conditions. […] TC-5 induced an approximately 2-fold increase in τw deact across all four tested subunits. […] These findings highlight the differential impact of TC compounds on deactivation kinetics across AMPAR subunits, shedding light on their potential neuroprotective mechanisms.
The flip isoform was uniformly employed across all AMPAR subunits in this study. These subunits were subcloned into the pRK vector and expressed in Human Embryonic kidney cells sourced (Sigma, München, Germany). HEK293T cells were grown in Dulbecco Modified Eagle Medium (DMEM) (Sigma, München, Germany) containing 10% FBS (fetal bovine serum), 0.1 mg/mL streptomycin, and 1 mM sodium pyruvate (Biological Industries; Beit-Haemek, Israel). HEK293T cells were incubated at 37 °C and 5% CO2 was supplemented to the medium. It was subcultured twice a week until cells reached pass #20. The transfection reagent used was either jetPRIME (Polyplus: New York, NY, USA) or Lipofectamine 2000 (Invitrogen; San Diego, CA, USA). Cells were kept for 36 h. after transfection in 12-well plates. Then, they were replated on coverslips coated with Laminin (1 mg/mL; Sigma, Germany) for electrophysiology recordings. Cells were then seeded in Petri dishes in DMEM supplemented with 10% fetal calf serum and antibiotics and maintained in a humidified incubator at 37 °C and 5% CO2. Highly fluorescent cells were identified and selected for recording post-transfection.
HEK293T cells were recorded for 36–48 h, at a temperature of 22 °C, with a membrane potential of −60 mV. HEK293T cells were recorded 36–48 h after transfection using IPA (Integrated Patch Amplifier) via the […], at a temperature of 22 °C, with a membrane potential of −60 mV. SutterPatch Software v. 1.1.1 (Sutter Instruments, Novato, CA, USA) was used to digitize membrane currents for a short period. The sampling frequency was set to 10 kHz, and the low-pass filter was set to 2 kHz. Borosilicate glass was used to fabricate the patch electrodes with a resistance of 2–4 MΩ. The extracellular solution contained the following (values are in mM): 150 NaCl, 2.8 KCl, 0.5 MgCl2, 2 CaCl2, and 10 HEPES, adjusted to pH 7.4 with NaOH. The pipette solution contained the following (values are in mM): 110 CsF, 30 CsCl, 4 NaCl, 0.5 CaCl2, 10 […], and 10 HEPES, adjusted to pH 7.2 with CsOH. […]

[1] = Table S6, peak current amplitudes, 8-10 cells, GraphPad Prism fit, read-out: IC50
[2] = Table S6, read-out: Log IC50 (converted)

T1 sequence (P42261 19-906 isoform P42261-2 limits assumed): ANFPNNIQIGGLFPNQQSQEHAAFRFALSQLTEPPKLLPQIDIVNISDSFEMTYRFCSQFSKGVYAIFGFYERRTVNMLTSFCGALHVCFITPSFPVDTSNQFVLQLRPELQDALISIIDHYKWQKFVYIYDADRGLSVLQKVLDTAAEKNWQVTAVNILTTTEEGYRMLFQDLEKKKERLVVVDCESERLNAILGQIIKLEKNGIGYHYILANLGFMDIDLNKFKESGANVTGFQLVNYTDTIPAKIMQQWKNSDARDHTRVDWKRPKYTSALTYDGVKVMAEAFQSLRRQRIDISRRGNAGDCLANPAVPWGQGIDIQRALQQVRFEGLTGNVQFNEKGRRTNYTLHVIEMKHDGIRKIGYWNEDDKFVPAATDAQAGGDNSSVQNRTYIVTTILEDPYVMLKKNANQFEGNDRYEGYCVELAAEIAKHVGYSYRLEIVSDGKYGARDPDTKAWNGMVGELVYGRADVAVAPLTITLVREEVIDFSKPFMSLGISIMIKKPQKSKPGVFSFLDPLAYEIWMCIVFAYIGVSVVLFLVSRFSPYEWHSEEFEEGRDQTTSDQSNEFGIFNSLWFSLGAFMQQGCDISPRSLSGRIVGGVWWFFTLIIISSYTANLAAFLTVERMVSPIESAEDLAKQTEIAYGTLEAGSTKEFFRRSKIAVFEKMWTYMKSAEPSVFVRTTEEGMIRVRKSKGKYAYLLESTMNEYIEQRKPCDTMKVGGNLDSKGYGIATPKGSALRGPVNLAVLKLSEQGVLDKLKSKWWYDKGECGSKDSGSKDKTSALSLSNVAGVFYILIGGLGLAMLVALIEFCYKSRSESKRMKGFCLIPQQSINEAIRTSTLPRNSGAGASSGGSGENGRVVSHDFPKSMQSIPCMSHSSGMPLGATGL
T1 sequence (P42262 25-883 isoform P42262-2 limits assumed): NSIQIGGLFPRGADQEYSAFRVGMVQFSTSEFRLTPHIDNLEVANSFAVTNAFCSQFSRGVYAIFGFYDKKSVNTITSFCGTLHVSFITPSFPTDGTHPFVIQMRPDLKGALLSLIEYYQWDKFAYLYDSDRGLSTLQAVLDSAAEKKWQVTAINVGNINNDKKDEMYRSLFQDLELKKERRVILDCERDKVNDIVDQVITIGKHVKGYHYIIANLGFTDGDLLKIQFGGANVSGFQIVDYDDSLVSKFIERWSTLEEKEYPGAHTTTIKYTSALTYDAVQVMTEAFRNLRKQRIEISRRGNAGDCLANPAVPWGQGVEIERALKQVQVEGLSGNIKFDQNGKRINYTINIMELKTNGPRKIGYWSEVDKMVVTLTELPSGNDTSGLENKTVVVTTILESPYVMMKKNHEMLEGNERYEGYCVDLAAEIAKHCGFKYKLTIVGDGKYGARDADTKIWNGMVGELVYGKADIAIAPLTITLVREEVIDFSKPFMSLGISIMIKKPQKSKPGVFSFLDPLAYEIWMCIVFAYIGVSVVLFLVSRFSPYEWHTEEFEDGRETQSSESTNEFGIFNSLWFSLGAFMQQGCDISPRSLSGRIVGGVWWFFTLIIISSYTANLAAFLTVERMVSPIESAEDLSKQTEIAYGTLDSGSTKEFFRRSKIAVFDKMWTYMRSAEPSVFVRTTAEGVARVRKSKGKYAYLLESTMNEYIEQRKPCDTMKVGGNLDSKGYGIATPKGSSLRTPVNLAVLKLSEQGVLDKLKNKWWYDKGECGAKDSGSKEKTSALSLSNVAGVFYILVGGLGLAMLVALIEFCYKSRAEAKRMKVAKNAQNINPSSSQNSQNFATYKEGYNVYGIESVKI

SMILES	decrease in τw des	Amplitude (glutamate plus TC compound) [pA]	Amplitude, applying glutamate alone after TC compound [pA]	IC50 [1] [µM]	IC50 [2] [µM]	A/AI	t deact [ms]	t des [ms]
COc1ccc(-c2nc(C(=O)Nc3ccc(OC)c(OC)c3)cs2)cc1 [TC-1]	around 1.3 fold	126±12	604±62	3.36	3.39	4.98±0.06	5.8 ± 0.4	3.9 ± 0.4
COc1ccc(-c2nc(C(=O)Nc3ccccc3)cs2)cc1 [TC-3]	–	197±24	565±72	5.64	5.62	3.09±0.02	3.3 ± 0.3	4.2 ± 0.3
COc1ccc(-c2nc(C(=O)Nc3ccc(C(C)(C)C)cc3)cs2)cc1 [TC-4]	–	221±26	609±77	5.78	5.75	2.86±0.02	3.2 ± 0.4	4.4 ± 0.3
